Data taken from patent US6605628B1, “Method of using 5-(arysulfonyl)-, 5-(arylsulfanyl)-and 5-(arylsulfanyl)thiazolidine-2,4-diones for inhibition of farnesyl-protein transferase” (Wyeth Holdings Corporation, priority 2001, dated 2003).

Tests used:
FPTase [1] = target: T1, FPTase (Homo sapiens, UniProt P49354+P49356); assay: in vitro FTase Inhibition Assay, H-Ras used as substrate for farnesylation; format: biochemical
Procedure: (§1) Enzyme test procedure: FPTase inhibition in vitro assay was performed according to James, G. L., Brown, M. S., and Goldstein, J. L., Methods in Enzymology, 1995, 255, 38-46; and Garcia, M. A., et al., J. Biol. Chem., 1993, 268, 18415-18420.
(§2) Materials—Purified FPTase (Moomaw, J. F. and Casey, P. J., J. Biol. Chem., 1992, 267, 17438-17443), purified His6-Ras, inhibitor compounds at 10 mg/ml or 10 mM in 100% DMSO, ^3H-FPP (50,000 dpm/pmol) Amersham, TCA/SDS (6%/2%), TCA (6%), Glass fiber filters ([…]), vacuum manifold or 96 well filtration plates.
(§3) Methods—1. Dilute FPTase inhibitors from stock solutions to 2.5× in 2.5% DMSO, 10 mM DTT, 0.5% octyl-B-glucoside. 2. Solution #1 is added to FPTase reaction in a volume of […]. 3. Standard reaction mix, […], contains 50 mM Tris (7.5), 10 mM ZnCl2, 3 mM MgCl2, 20 mM KCl, 5 mM DTT, 0.2% octyl-B-glucoside, 1% DMSO, […] His6-Ras, 10 ng FPTase, and various concentrations of FPTase inhibitors. 4. Incubate for 30-90 min at 25° C. 5. Stop reactions with TCA/SDS (6%/2%), hold at 4° C. for 45-60 min. 6. Filter by manifold or 96 well plate, wash filter 3-5× with TCA (6%). 7. Add scintillant to filters, measure ^3H-FPP incorporation into Ras protein.
(§4) Analysis of Results—Percent inhibition by test compounds is determined by the following:
(§5) (cpm from precipitated Ras with test compounds)−(background cpm)×100=% inhibition.
(§6) (cpm from precipitated Ras without test compounds)−(background cpm)

FPTase [2] = target: T1, FPTase; assay: in vitro FTase Inhibition Assay, K-Ras used as substrate for farnesylation; format: biochemical; conditions: Table I
Procedure: as §1, §2, §3, §4, §5, §6

[3] = Table II, read-out: IC50 (wi. H-Ras)

Compound: 5-(4-Iodobenzenesulfonyl)-5-[5-(2-methyl-4-nitrophenyl)pent-4-ynyl]-thiazolidine-2,4-dione [Example 131]
- IC50 (FPTase [1]; Table I, read-out: IC50 H-Ras*): 6 to 32 nM
- IC50 (FPTase [2]): 80 to 310 nM

Compound: 5-[5-(2-Methyl-4-nitrophenyl)pent-4-ynyl]-5-[4-(pyridin-4-yloxy)-benzenesulfonyl]thiazolidine-2,4-dione [Example 128]
- IC50 (FPTase [1]; Table I, read-out: IC50 H-Ras*): 1 to 32 nM
- IC50 (FPTase [2]): 20 to 220 nM

Compound: 5-[5-(4-Chloro-2-methylphenyl)pent-4-ynyl]-5-(4-trifluoromethoxybenzenesulfonyl)-thiazolidine-2,4-dione [Example 140]
- IC50 (FPTase [1]; Table I, read-out: IC50 H-Ras*): 150 to 300 nM
- IC50 (FPTase [2]): 1000 to 3600 nM

Compound: COc1ccc(S(=O)(=O)C2(CCCC#Cc3cc(NC(=O)OC(C)(C)C)ccc3C)SC(=O)NC2=O)cc1 (single isomer, unassigned; less polar) [Example 222, Enantiomer of (3-{5-[5-(4-Methoxybenzenesulfonyl)-2,4-dioxothiazolidin-5-yl]pent-1-ynyl}-4-methylphenyl)carbamic Acid tert-Butyl Ester (Less Polar)]
- IC50 (FPTase [1]; Table I, read-out: IC50 H-Ras*): 3.3 nM
- IC50 (FPTase [2]): 33 nM

Compound: COc1ccc(S(=O)(=O)C2(CCCC#Cc3cc(NC(=O)OC(C)(C)C)ccc3C)SC(=O)NC2=O)cc1 (single isomer, unassigned; more polar) [Example 223, Enantiomer of (3-{5-[5-(4-Methoxybenzenesulfonyl)-2,4-dioxothiazolidin-5-yl]pent-1-ynyl}-4-methylphenyl)carbamic Acid tert-Butyl Ester (More Polar)]
- IC50 (FPTase [1]; Table I, read-out: IC50 H-Ras*): 63 nM
- IC50 (FPTase [2]): > 1000 nM

Compound: COc1ccc(S(=O)(=O)C2(CCCC#Cc3ccc(Cl)cc3)SC(=O)NC2=O)cc1 (stereo not shown) [Example 97, 5-[5-(4-Chlorophenyl)pent4-ynyl]-5-(4-methoxyphenylsulfonyl)-thiazolidine-2,4-dione]
- IC50 (FPTase [1]; Table I, read-out: IC50 H-Ras*): 75 to 150 nM
- IC50 (FPTase [2]): 3500 to 5500 nM

Compound: O=C1NC(=O)C(CCCC#Cc2ccc(Cl)cc2)(S(=O)(=O)c2ccc(F)cc2)S1 (stereo not shown) [Example 105, 5-[5-(4-Chlorophenyl)pent-4-ynyl]-5-(4-fluorobenzenesulfonyl)thiazolidine-2,4-dione]
- IC50 (FPTase [1]; Table I, read-out: IC50 H-Ras*): 50 to 150 nM
- IC50 (FPTase [2]): 1500 to 1700 nM

Compound: O=C1NC(=O)C(CCCC#Cc2ccc(Cl)cc2)(S(=O)(=O)c2cccc3cccnc23)S1 (stereo not shown) [Example 109, 5-[5-(4-Chlorophenyl)pent-4-ynyl]-5-(quinoline-8-sulfonyl)thiazolidine-2,4-dione]
- IC50 (FPTase [1]; Table I, read-out: IC50 H-Ras*): 65 to 130 nM
- IC50 (FPTase [2]): 1400 to 2100 nM

Compound: O=C1NC(=O)C(CCCC#Cc2ccc(Cl)cc2)(S(=O)(=O)c2ccc([N+](=O)[O-])cc2)S1 (stereo not shown) [Example 110, 5-[5-(4-Chlorophenyl)pent-4-ynyl]-5-(4-nitrobenzenesulfonyl)thiazolidine-2,4-dione]
- IC50 (FPTase [1]; Table I, read-out: IC50 H-Ras*): 400 nM
- IC50 (FPTase [2]): 7000 nM

Compound: O=C1NC(=O)C(CCCC#Cc2cc(Cl)ccc2Cl)(S(=O)(=O)c2ccc(I)cc2)S1 (stereo not shown) [Example 115, 5-[5-(2,5-Dichloro-phenyl)pent-4-ynyl]-5-(4-iodobenzenesulfonyl)-thiazolidine-2,4-dione]
- IC50 (FPTase [1]; Table I, read-out: IC50 H-Ras*): 12 to 320 nM
- IC50 (FPTase [2]): 160 to 230 nM

Compound: COc1ccc(S(=O)(=O)C2(CCCC#Cc3cc([N+](=O)[O-])ccc3C)SC(=O)NC2=O)cc1 (stereo not shown) [Example 122, 5-(4-Methoxybenzenesulfonyl)-5-[5-(2-methyl-5-nitrophenyl)pent-4-ynyl]thiazolidine-2,4-dione]
- IC50 (FPTase [1]; Table I, read-out: IC50 H-Ras*): 30 to 50 nM
- IC50 (FPTase [2]): 230 to 1000 nM

Compound: COc1ccc(S(=O)(=O)C2(CCCC#Cc3cc([N+](=O)[O-])ccc3OC)SC(=O)NC2=O)cc1 (stereo not shown) [Example 123, 5-(4-Methoxybenzenesulfonyl)-5-[5-(2-methoxy-5-nitrophenyl)pent-4-ynyl]thiazolidine-2,4-dione]
- IC50 (FPTase [1]; Table I, read-out: IC50 H-Ras*): 80 to 82 nM
- IC50 (FPTase [2]): 1000 to 2800 nM

Compound: COc1ccc(S(=O)(=O)C2(CCCC#Cc3ccc([N+](=O)[O-])cc3C)SC(=O)NC2=O)cc1 (stereo not shown) [Example 130, 5-(4-Methoxybenzenesulfonyl)-5-[5-(2-methyl-4-nitrophenyl)-pent-4-ynyl]-thiazolidine-2,4-dione]
- IC50 (FPTase [1]; Table I, read-out: IC50 H-Ras*): 23 to 56 nM
- IC50 (FPTase [2]): 320 to 1000 nM

Compound: COc1ccc(S(=O)(=O)C2(CCCC#Cc3ccc([N+](=O)[O-])cc3OC)SC(=O)NC2=O)cc1 (stereo not shown) [Example 132, 5-(4-Methoxybenzenesulfonyl)-5-[5-(2-methoxy-4-nitrophenyl)pent-4-ynyl]thiazolidine-2,4-dione]
- IC50 (FPTase [1]; Table I, read-out: IC50 H-Ras*): 41 to 73 nM
- IC50 (FPTase [2]): 210 to 1000 nM

Compound: COc1ccc(S(=O)(=O)C2(CCCC#Cc3cc(F)cc([N+](=O)[O-])c3)SC(=O)NC2=O)cc1 (stereo not shown) [Example 133, 5-[5-(3-Fluoro-5-nitrophenyl)pent-4-ynyl]-5-(4-methoxybenzenesulfonyl)-thiazolidine-2,4-dione]
- IC50 (FPTase [1]; Table I, read-out: IC50 H-Ras*): 40 to 200 nM
- IC50 (FPTase [2]): 54 to 1000 nM

Compound: COc1ccc(S(=O)(=O)C2(CCCC#Cc3ccc(Cl)cc3C)SC(=O)NC2=O)cc1 (stereo not shown) [Example 142, 5-[5-(4-Chloro-2-methylphenyl)pent-4-ynyl]-5-(4-methoxybenzene-sulfonyl)-thiazolidine-2,4-dione]
- IC50 (FPTase [1]; Table I, read-out: IC50 H-Ras*): 17 to 30 nM
- IC50 (FPTase [2]): 40 to 1000 nM

Compound: COc1ccc(S(=O)(=O)C2(CCCC#Cc3ccc(Br)cc3C)SC(=O)NC2=O)cc1 (stereo not shown) [Example 143, 5-[5-(4-Bromo-2-methy-phenyl)pent-4-ynyl]-5-(4-methoxybenzene-sulfonyl)-thiazolidine-2,4-dione]
- IC50 (FPTase [1]; Table I, read-out: IC50 H-Ras*): 30 nM
- IC50 (FPTase [2]): 850 nM

Compound: COc1ccc(S(=O)(=O)C2(CCCC#Cc3ccc(NC(=O)OC(C)(C)C)cc3)SC(=O)NC2=O)cc1 (stereo not shown) [Example 145, (4-{5-[5-(4-Methoxybenzensulfonyl)-2,4-dioxothiazolidin-5-yl)pent-1-ynyl}phenyl)carbamic Acid tert-Butyl Ester]
- IC50 (FPTase [1]; Table I, read-out: IC50 H-Ras*): 1200 to 1700 nM
- IC50 (FPTase [2]): 5600 to 10000 nM

Compound: Cc1ccc(C(=O)NC(C)(C)C)cc1C#CCCCC1(S(=O)(=O)c2ccc(I)cc2)SC(=O)NC1=O (stereo not shown) [Example 147, N-tert-Butyl-3-{5-[5-(4-iodobenzenesulfonyl)-2,4-dioxothiazol-idin-5-yl]-pent-1-ynyl}-4-methyl-benzamide]
- IC50 (FPTase [1]; Table I, read-out: IC50 H-Ras*): 6.8 to 210 nM
- IC50 (FPTase [2]): 80 to 100 nM

Compound: COc1ccc(S(=O)(=O)C2(CCCC#Cc3ccc(NC(=O)OC(C)(C)C)cc3C)SC(=O)NC2=O)cc1 (stereo not shown) [Example 149, (4-{5-[5-(4-Methoxybenzenesulfonyl)-2,4-dioxo-thiazolidin-5-yl)pent-1-ynyl}-3-methylphenyl)carbamic Acid tert-Butyl Ester]
- IC50 (FPTase [1]; Table I, read-out: IC50 H-Ras*): 450 to 500 nM
- IC50 (FPTase [2]): 1000 to 4900 nM

Compound: COc1ccc(S(=O)(=O)C2(CCCC#Cc3ccc(NC(=O)OC(C)(C)C)cc3C(F)(F)F)SC(=O)NC2=O)cc1 (stereo not shown) [Example 151, (4-{5-[5-(4-Methoxybenzenesulfonyl)-2,4-dioxothiazolidin-5-yl]pent-1-ynyl}-3-trifluoromethylphenyl)-carbamic Acid tert-Butyl Ester]
- IC50 (FPTase [1]; Table I, read-out: IC50 H-Ras*): 530 to 700 nM
- IC50 (FPTase [2]): 210 to 1000 nM

Compound: COc1ccc(S(=O)(=O)C2(CC#Cc3ccc(-c4ccccc4)cc3)SC(=O)NC2=O)cc1 (stereo not shown) [Example 171, 5-(3-Biphenyl-4-yl-prop-2-ynyl)-5-(4-methoxybenzenesulfonyl)-thiazolidine-2,4-dione]
- IC50 (FPTase [1]; Table I, read-out: IC50 H-Ras*): 200 nM
- IC50 (FPTase [2]): 3300 nM

Compound: COc1ccc(S(=O)(=O)C2(CCCC#Cc3cc(NC(=O)OCc4ccccc4)ccc3C)SC(=O)NC2=O)cc1 (stereo not shown) [Example 175, (3-{5-[5-(4-Methoxybenzenesulfonyl)-2,4-dioxothiazolidin-5-yl]pent-1-ynyl}-4-methylphenyl)carbamic Acid Benzyl Ester]
- IC50 (FPTase [1]; Table I, read-out: IC50 H-Ras*): 10 to 32 nM
- IC50 (FPTase [2]): 53 to 520 nM

Compound: COc1ccc(S(=O)(=O)C2(CCCC#Cc3cc(NC(=O)OCc4ccc([N+](=O)[O-])cc4)ccc3C)SC(=O)NC2=O)cc1 (stereo not shown) [Example 176, (3-{5-[5-(4-Methoxybenzenesulfonyl)-2,4-dioxothiazolidin-5-yl]pent-1-ynyl}-4-methylphenyl)carbamic Acid 4-Nitro- Benzyl Ester]
- IC50 (FPTase [1]; Table I, read-out: IC50 H-Ras*): 3.2 to 32 nM
- IC50 (FPTase [2]): 30 to 320 nM

Compound: O=C1NC(=O)C(CC#Cc2ccc(C(F)(F)F)cc2)(S(=O)(=O)c2ccc(F)cc2)S1 (stereo not shown) [Example 264, 5-(4-Fluoro-benzenesulfonyl)-5-[3-(4-trifluoromethyl-phenyl)-prop-2-ynyl)-thiazolidine-2,4-dione]
- IC50 (FPTase [1]; [3]): 300 nM

Compound: O=C1NC(=O)C(CC#Cc2ccc(Cl)cc2)(S(=O)(=O)c2ccc3ccccc3n2)S1 (stereo not shown) [Example 265, 5-[3-(4-Chloro-phenyl)-prop-2-ynyl]-5-(quinoline-2-sulfonyl)-thiazolidine-2,4-dione]
- IC50 (FPTase [1]; [3]): 1500 nM

Compound: O=C1NC(=O)C(CC#Cc2cc(C(F)(F)F)cc(C(F)(F)F)c2)S1 (stereo not shown) [Example 266, 5-[3-(3,5-bis-Trifluoromethyl-phenyl)-prop-2-ynyl]-thiazolidine-2,4-dione]
- IC50 (FPTase [1]; [3]): 500 nM

Compound: Cc1ccc(SC2(CC#Cc3ccc(Cl)cc3)SC(=O)NC2=O)cc1 (stereo not shown) [Example 267, 5-[3-(4-Chloro-phenyl)-prop-2-ynyl]-5-(p-tolylsulfanyl)-thiazolidine-2,4-dione]
- IC50 (FPTase [1]; [3]): 5000 nM
